Experimental data taken from patent US20020055171A1, “PREPARATION OF BIOLOGICALLY ACTIVE 3-METHYLENEOXINDOLE AND DEFINITION OF ITS APPLICATION IN STIMULATION OF PLANT GROWTH AND TISSUE REPAIR” (priority 1998, published 2002).

Experiments:
[1] = test system: explants of Nicotiana tobaccum, Ficus benjamina, Kalanchoe, and Hosta; assay: Stage II (multiplication) micropropagation of explants; format: cell-based
Excerpt: MO produced an equivalent amount of growth at 10^−8 M and maximal growth at 10^−7 M.
Stage II and Stage III micropropagation of various plant species using IAA or MO as auxin source. Explants were placed in various concentrations of sterilized IAA or MO formulated in sterilized agar/mineral salts/kinnin media.

[2] = test system: Parenchyma tissue from heads of romaine lettuce; assay: Formation of callus tissue in lettuce parenchyma sections; format: cell-based; details: 7 days at 26 degrees in the dark, average initial weight 0.04 g
Excerpt: Note: Parenchyma tissue was obtained from heads of romaine lettuce. Cylinders measuring 5 mm in diameter and 20 mm in length were removed with a cork borer from the stalks of lettuce heads. The cylinders were sterilized in a 10% solution of commercial bleach (sodium hypochlorite). Three (3) mm wide circular sections were removed from the sterilized cylinders and 10 sections were placed in petri dishes containing various concentrations of auxins and MO formulated in sterilized agar/mineral salts/kinin media. The sections were incubated at 26 degrees in the dark for seven (7) days. At the end of the incubation period, the callus tissue in each treatment was weighed and the average weight of each section was recorded. The average initial weight of the sections was 0.04 g.

[3] = test system: cuttings from 12-day old bean plants; assay: Root formation in bean cuttings planted in treated vermiculite; format: in vivo; details: for Average dry wt (grams) of root mass (14 days after treatment): 10 cuttings per treatment
Experimental: Legend to Table I. Ten (10) cuttings were used per treatment. Cuttings were obtained from 12-day old bean plants by excising each plant above the cotyledonery node. The cuttings were planted in vermiculite treated with various concentrations of the indicated compounds. Fourteen days after treatment, the portion of the cutting subtending the root mass was removed and dried for 48 hrs. at 50° C.

plants = assay: Physiological (auxin) responses of plants compared with IAA; details: MO obtained from purified 3-Brox
Excerpt: It is well known that at suitable concentrations, IAA can stimulate the growth of excised stem segments, promote root development in cuttings, and in combination with another group of plant growth substances known as kinins, can regenerate intact plants from single cells or meristematic tissue.

[4] = test system: cuttings from tomatoes, begonias, African violets, roses, soybeans and peas; assay: Root formation in cuttings from various plants; format: in vivo
Excerpt: Use of MO and its solutions prepared by novel methods for stimulation of root formation in plant cuttings and as replacement for IAA or synthetic auxins in plant tissue culture. […] Refer to FIG. 2 for typical response of cuttings to test compounds and Table I for data summary.

Hosta = assay: Micropropagation of Hosta in Stage I, II and III media; format: cell-based
Excerpt: Photographic evidence showing the comparative response of explants to IAA and MO in Stage II and Stage III growth media is available on request. A description of the photos is provided herein.

[5] = test system: explants of various plant species; assay: Stage III (rooting) micropropagation of explants; format: cell-based; details: Stage III (rooting) medium
Excerpt: Stage III micropropagation of various plant species using IAA or MO as auxin source. Explants were placed in various concentrations of sterilized IAA or MO formulated in sterilized agar/mineral salts/kinnin media

hardwood trees = assay: Wound healing (callus formation) on sawed-off branches of hardwood trees, lanolin paste; format: in vivo; details: final concentration 10^−5M, compared with IAA
Excerpt: Use of pure solutions of MO to stimulate healing in plants by aiding in the formation of callus tissue at the wound site. This would have the prophylactic effect of preventing infection in wounded trees. Application of MO in a solution, gel or lanolin paste preparation induces rapid formation of protective callus tissue. Refer to Table II for data summary. Large branches of hardwood trees were sawed off and treated with either IAA or MO prepared in lanolin paste.

[6] = Stage II (multiplication) medium

| SMILES | concentration required to produce maximal growth [1, 6] | Weight in grams of Callus tissue ([2]; 10^−4 moles/L) [g] | Weight in grams of Callus tissue ([2]; 10^−5 moles/L) [g] | Weight in grams of Callus tissue ([2]; 10^−6 moles/L) [g] | Weight in grams of Callus tissue ([2]; 10^−7 moles/L) [g] | Weight in grams of Callus tissue ([2]; 10^−8 moles/L) [g] | Emergence of roots (No. of days after treatment) ([3]; 10^−4M) [days] | Average dry wt (grams) of root mass (14 days after treatment) ([3]; 10^−4M) [grams] | Emergence of roots (No. of days after treatment) ([3]; 10^−5M) [days] | Average dry wt (grams) of root mass (14 days after treatment) ([3]; 10^−5M) [grams] | Emergence of roots (No. of days after treatment) ([3]; 10^−6M) [days] | Average dry wt (grams) of root mass (14 days after treatment) ([3]; 10^−6M) [grams] | further results |
| --- | --- | --- | --- | --- | --- | --- | --- | --- | --- | --- | --- | --- | --- |
| O=C(O)Cc1c[nH]c2ccccc12 [IAA, Indole-3-acetic acid] | 10^−5 M | 0.08 | 0.25 | 1.2 | 0.80 | 0.40 | 7 | 8 | 7 | 10 | 9 | 7 | – |
| O=C(O)CCCc1c[nH]c2ccccc12 [IBA, indolebutyric acid] | – | 0.05 | 0.18 | 0.70 | 0.55 | 0.12 | 9 | 5 | – | 7 | 5 | 7 | – |
| C=C1C(=O)Nc2ccccc21 [MO, 3-methyleneoxindole] | 10^−7 M | 0.02 | 0.15 | 1.5 | 1.95 | 1.75 | – | – | – | – | 4 | 11 | concentration producing growth equivalent to IAA at its most effective concentration [1, 6]: 10^−8 M; fold more effective than IAA and the synthetic auxins ([1]; Stage II medium): 1,000 fold; fold as effective as IAA in eliciting physiological responses (plants): 100-1000 fold; root formation compared with IAA, napthaleneacetic acid and indolebutyric acid [4]: more profuse roots in a much shorter time and at significantly lower concentrations; effectiveness compared with synthetic auxins (Hosta): far more effective than the synthetic auxins; Emergence of roots (No. of days after treatment) ([3]; 10^−7M): 4 days; Average dry wt (grams) of root mass (14 days after treatment) ([3]; 10^−7M): 13 grams; Emergence of roots (No. of days after treatment) ([3]; 10^−8M): 6 days; Average dry wt (grams) of root mass (14 days after treatment) ([3]; 10^−8M): 10 grams; fold more effective than IAA and the synthetic auxins [5]: 1,000 fold; healing of wound by callus formation (hardwood trees): healed rapidly by forming callus tissue over the wound |
| O=C(O)Cc1cccc2ccccc12 [NAA, napthaleneacetic acid] | – | 0.06 | 0.15 | 0.85 | 0.60 | 0.20 | 8 | 5 | 9 | 7 | 8 | 2 | – |
